Here are results for two compounds from patent US8133906B2, “Method of treating amblyopia” (Hermo Pharma Oy, priority 2007, dated 2012).

Data set [1] concerns adult Long-Evans hooded rats, binocular visual cortex contralateral to the deprived eye. The data set can be described thus: Ocular dominance plasticity after one week of monocular deprivation (MD) in adult rats, C/I VEP ratio. In kind it is in vivo, rat. As to conditions: fluoxetine alone, without deprivation of one eye.
Protocol: Adult Long-Evans hooded rats were used in this study. Animals were group-housed under standard conditions with food and water ad libitum in plexiglass cages (40×30×20 cm) and kept in a 12:12 light/dark cycle.
Adult animals, under treatment, were anesthetized with avertin (1 ml kg^−1) and mounted on a stereotaxic apparatus to be monocularly deprived. Eyelid closure was inspected daily until complete cicatrization; subjects with even minimal spontaneous re-opening were excluded. Great care was taken during the first days after MD to prevent inflammation or infection of the deprived eye through topical application of antibiotic and cortisone.
Additional doses of urethane were used to keep the anesthesia level stable throughout the experiment. Body temperature was continuously monitored and maintained at ˜37° C. by a thermostated electric blanket during the experiment. An ECG was continuously monitored. A hole was drilled in the skull, corresponding to the binocular portion of the primary visual cortex (binocular area OclB) contralateral to the deprived eye. […] We measured visual acuity through both eyes using visual evoked potentials (VEPs). […] Transient VEPs in response to abrupt contrast reversal (0.5 Hz) were evaluated in the time domain by measuring the peak-to-baseline amplitude and peak latency of the major negative component. […]
For the next data set, the system named is adult amblyopic rats. Description: Behavioral assessment of visual acuity (visual water task) in adult amblyopic rats. As to conditions: reverse suture, 4-week fluoxetine, n=5. In kind it is in vivo, rat. The protocol: (§1) This method of administration yields steady-state plasma concentrations of 356±99 ng/ml in rats, which is within the recommended plasma concentration for the treatment of depression in humans (50-450 ng/ml).
To perform analysis of long-term MD, rats were anesthetized with avertin (1 ml kg^−1) and monocularly deprived through eyelid suturing at P21. Eyelid closure was inspected daily until complete cicatrization; subjects with even minimal spontaneous re-opening were excluded. […] The long-term deprived eye was re-opened using thin scissors, while the other eye was sutured shut. Great care was taken during the first days after RS to prevent inflammation or infection in the previously deprived eye through topical application of antibiotic and cortisone.
Then, after RS, during the third week of treatment (P90), we started measuring visual acuity of the long term deprived eye. […] To measure visual acuity, we used the visual water task (Prusky et al., 2000) which trains animals to first distinguish a low (0.1 cycles per degree (c deg^−1)) spatial frequency vertical grating from grey, and then tests the limit of this ability at higher spatial frequencies. The apparatus consists of a trapezoidal-shaped pool with two panels placed side by side at one end. […] A trial is recorded as incorrect if an animal enters the arm without the platform. […]

The subject of a further data set is BDNF. The data set can be described thus: BDNF protein expression by ELISA after repeated fluoxetine administration. The format is in vivo, rat. As to conditions: adult rats. The protocol: as §1
Proteins from fresh visual cortex and hippocampus were initially extracted, respectively, using lysis buffer (1% Triton X-100, 10% Glycerol, 20 mM TrisHCl pH 7.5, 150 mM NaCl, 10 mM EDTA, 0.1 mM Na3VO4, 1¼ g/ml Leupeptin, 1¼ g/ml Aprotinin, 1 mM PMSF). The total concentration of samples was quantified with the protein assay kit (Bio-Rad, Hercules, Calif.) using a BSA based standard curve. Afterwards, BDNF expression was assessed loading 100 μg of total proteins in triplicate in a standard ELISA plate together with a standard curve and processed as indicated in the manufacturer protocol (BDNF, Promega).
In general terms: An ELISA detects its analyte on a solid surface through an enzyme-linked reagent.

For data set [2] the following is noted: humans; cited from earlier work.
Data set [3] has as its system adult amblyopic rats, visual cortex contralateral to the long-term deprived eye. The data set can be described thus: VEP recording of visual acuity and binocularity in adult amblyopic rats (long-term MD from P21, reverse suture). The format is in vivo, rat. The note with it: long-term MD from P21, reverse suture last two weeks of 4-week fluoxetine, n=5, control 0.62±0.06, fellow eye 1.06±0.01. The procedure:
as §1
To perform analysis of long-term MD, rats were anesthetized with avertin (1 ml kg^−1) and monocularly deprived through eyelid suturing at P21. Eyelid closure was inspected daily until complete cicatrization; subjects with even minimal spontaneous re-opening were excluded. […] The long-term deprived eye was re-opened using thin scissors, while the other eye was sutured shut. […]
Additional doses of urethane were used to keep the anesthesia level stable throughout the experiment. Body temperature was continuously monitored and maintained at ˜37° C. by a thermostated electric blanket during the experiment. An ECG was continuously monitored. […] We measured visual acuity through both eyes using visual evoked potentials (VEPs). […] Transient VEPs in response to abrupt contrast reversal (0.5 Hz) were evaluated in the time domain by measuring the peak-to-baseline amplitude and peak latency of the major negative component. […] Binocularity (ocular dominance) was assessed calculating the contralateral to ipsilateral (C/I) VEP ratio, i.e. the ratio of VEP amplitudes recorded by stimulating the eye respectively contralateral and ipsilateral to the visual cortex where recording is performed.

The test system of data set [4] is extracellular GABA and glutamate in visual cortex. The data set can be described thus: In vivo brain microdialysis in the visual cortex with HPLC of GABA and glutamate. Further details: species or system rat. As to conditions: adult rats, repeated fluoxetine. The procedure:
After the end of repeated treatment with fluoxetine, the in vivo sampling of dialysates was performed inserting a microdialysis probe into the guide shaft previously implanted. A detailed description of the procedure followed is reported in (Hernandez et al., 1986). Briefly, the probe was made of concentric fused-silica polyimide covered capillary tube into a 26 gauge stainless steel tube with a 1 mm long tip of exposed cellulose membrane (6000 MW cut-off). It was connected to a dialysis system pumping an artificial CSF (142 mM NaCl, 3.9 mM KCl, 1.2 mM CaCl2, 1 mM MgCl2, 1.35 mM Na2HPO4, pH 7.4) at a flow rate of 1 μl min^−1. The probe protruded 1 mm from the tip of the guide shaft. Six hours after insertion of the probe (stabilization period), sampling was carried out.
After brain microdialysis, rats were sacrificed with an overdose of chloral hydrate and perfused intracardially as described above. Brains were post-fixed for two hours before being immersed in 30% sucrose in PBS. […]
Analysis of γ-aminobutyric acid (GABA) and glutamate (GLU) basal levels from microdialysates was performed using High Performance Liquid Chromatography (HPLC) coupled to a fluorimetric detection system. […] Homoserine was used as internal standard and amino-acid concentrations were calculated from a linear standard curve built upon known concentrations of injected amino acids. […]

Data set [5] has as its system adult rat visual cortex slices. Description: LTP recordings in visual cortex slices after theta-burst stimulation from the white matter (WM-LTP). The note with it: slices from fluoxetine treated adult rats (P100), measured 20-30 min following TBS. From the text:
Slices (0.35 mm thick) of visual cortex were obtained using a Leica (Nussloch, Germany) vibratome. […] The recording solution was composed as the cutting solution with the following differences (in mM): 130 NaCl, 5.0 dextrose, 1.0 MgCl2, 2.0 CaCl2, 0.01 glycine, no kynurenate, no sucrose. Electrical stimulation (100 μsec duration) was delivered with a bipolar concentric stimulating electrode (FHC, St. Bowdoinham, Me.) placed at the border of the white matter and layer VI. Field potentials in layers II-III were recorded by a micropipette (1-3MΩ) filled with NaCl (3 M). Baseline responses were obtained every 30 sec with a stimulation intensity that yielded a half-maximal response. After achievement of a 15 min stable baseline (field potential amplitude within 15% of change and with no evident increasing or decreasing trends), θ burst stimulation (TBS) was delivered. Postsynaptic field potentials after TBS were recorded every 30 sec during 30 min.

Data set [6] concerns adult rats, visual cortex contralateral to the deprived eye. The data set can be described thus: Intracortical infusion of diazepam or vehicle during MD in fluoxetine treated rats, C/I VEP ratio. In kind it is in vivo, rat. As to conditions: cortical diazepam 2 mg/ml during last week of chronic fluoxetine.
Protocol: Additional doses of urethane were used to keep the anesthesia level stable throughout the experiment. Body temperature was continuously monitored and maintained at ˜37° C. by a thermostated electric blanket during the experiment. An ECG was continuously monitored. A hole was drilled in the skull, corresponding to the binocular portion of the primary visual cortex (binocular area OclB) contralateral to the deprived eye. After exposure of the brain surface, the dura was removed, and a micropipette (2 MΩ) filled with NaCl (3 M) was inserted into the cortex 5 mm from λ (intersection between sagittal- and lambdoid-sutures). Both eyes were fixed and kept open by means of adjustable metal rings surrounding the external portion of the eye bulb. We measured visual acuity through both eyes using visual evoked potentials (VEPs). During recording through one eye, the other was covered by a black adhesive tape. […] Transient VEPs in response to abrupt contrast reversal (0.5 Hz) were evaluated in the time domain by measuring the peak-to-baseline amplitude and peak latency of the major negative component. Visual stimuli were horizontal sinusoidal gratings of different spatial frequencies and contrast, generated by a VSG2/2 card running custom software and presented on a monitor (20×22 cm; luminance 15 cd m^−2) positioned 20 cm from the rat's eyes and centred on the previously determined receptive fields. […]

Each structure is given as a SMILES string. Entries after “also recorded” stand apart in the source; their conditions may differ.

Regarding `CNCCC(Oc1ccc(C(F)(F)F)cc1)c1ccccc1` (stereo not shown) [fluoxetine], the “Responsiveness of either eye to visual stimulation” value in data set [1] is recorded as “did not produce any changes”. Moreover, the “Visual acuity of the formerly deprived eye (behavioral, visual water box task)” value with adult amblyopic rats came to 0.88±0.02 c deg^−1. For the same compound, the “BDNF protein expression in hippocampus vs controls” value with BDNF (t-test p<0.01 n=6) is recorded as “significantly higher; also recorded: similarly enhanced”. In the data set with BDNF (t-test p<0.04 n=6), the “BDNF protein expression in visual cortex vs controls” value was “significantly higher”. Further, the “Recommended (therapeutic) plasma concentration for the treatment of depression” value in data set [2] was 50 to 450 ng/mL. The “Visual acuity of the formerly deprived eye (VEP)” value in data set [3] was 0.97±0.04 c deg^−1. Also, the “Extracellular glutamate (GLU) levels vs controls” value in data set [4] (data not shown) is reported as “No difference”. In addition, the “Basal extracellular levels of GABA in visual cortex vs controls” value in data set [4] (n=5, p<0.02) is given as “significantly lower; also recorded: significant reduction”. In data set [5], the “WM-LTP of layer II-III field potentials after theta-burst stimulation vs controls” value is “significantly enhanced; also recorded: fully restored”.

For `CN1C(=O)CN=C(c2ccccc2)c2cc(Cl)ccc21` [diazepam], the “Effect on OD shift induced by MD in fluoxetine treated rats” value in data set [6] is listed as “prevented the restoration of OD plasticity; also recorded: totally prevented”.
